In PMC5028780, “Receptor and transporter binding and activity profiles of albiflorin extracted from Radix paeoniae Alba” (Scientific Reports, 2016):
“And” between values parts separate entries of the source, which are not always exact repeats. Equal values may be shown once.

Assays:
rat SERT = target: T1, rat SERT (Rattus norvegicus, UniProt P31652); assay: Rat monoamine transporter binding assay, SERT; details: [3H]-citalopram, Cerebral cortex
T1 construct: from tissue; host or cells: Sprague-Dawley rat cerebral cortex membranes
Method: (§1) Male Sprague–Dawley rats were killed by cervical dislocation, and their brains were rapidly removed and then dissected on ice. The cerebral cortex, hypothalamus and striatum were homogenised in 4 mL of assay buffer (50 mM Tris–HCl buffer, pH 7.4.) and centrifuged at 40,000× g for 10 min at 4 °C. The pellets were centrifuged twice at 20,000× g and then resuspended in 4 mL of assay buffer. […] Bio-Rad protein assay reagents (1:5 ratio) were used to analyse the protein concentration of the synaptosomal suspension.
(§2) All data for inhibition curves were analysed by nonlinear regression using Prism software (GraphPad Software Inc., San Diego, CA) to determine IC50 values. For the microdialysis experiments, two-way repeated-measures ANOVA followed by Tukey’s test was used to compare the percentage increase over baseline between groups, time and treatment as independent factors, and time as the repeated factor.

rat NET = target: T2, rat NET (Rattus norvegicus, UniProt Q63380); assay: Rat monoamine transporter binding assay, NET
T2 construct: from tissue; host or cells: Sprague-Dawley rat hypothalamus membranes
Method: as §1, §2

rat DAT = target: T3, rat DAT (Rattus norvegicus, UniProt P23977); details: [3H]-win35,428, Striatum, read-out: Ki values, DAT binding
T3 construct: from tissue; host or cells: Sprague-Dawley rat brain membranes (probably striatum)
Method: as §1, §2

DAT = target: T4, DAT (Rattus norvegicus, UniProt P23977); type: biochemical; details: Striatum synaptosome, read-out: IC50 values, uptake of [3H]-DA (DAT)
T4 construct: rat brain synaptosomes were prepared and treated with various concentrations of albiflorin; from tissue; host or cells: Sprague-Dawley rat striatal synaptosomes
Method: (§3) Male Sprague–Dawley rats were killed by asphyxiation with carbon dioxide and cervical dislocation followed by decapitation. The brains were removed quickly and the cerebral cortex, hypothalamus and striatum were dissected on ice. All dissected tissues were homogenised using a Teflon-glass tissue homogeniser in 4 mL of ice-cold sucrose (0.32 M). The homogenised tissue was centrifuged at 2,000× g for 10 min at 4 °C. […] Bio-Rad protein assay reagents (1:5 ratio) were used to analyse the protein concentration of the synaptosomal suspension. Uptake of 5-HT, NE and DA was determined as described previously. The compounds to be tested were dissolved in DMSO, further diluted with assay buffer, and tested over a 10-log unit concentration range in duplicate. Samples of 30–50 μg of synaptosomes (per sample in a total volume of 200 μL) were preincubated at 37 °C in a shaking water bath for 10 min. Vehicle or modifiers were then added for 10–20 min. Uptake was initiated by adding [^3H]-5-HT (20 nM), [^3H]-NE (20 nM), or [^3H]-DA (50 nM). After a 10-min incubation at 37 °C, uptake was terminated by filtration through (polyethyleneimine-coated) GF/B Whatman filters using a Brandel Cell Harvester (Brandel, Gaithersburg, MD).
(§4) All data for inhibition curves were analysed by nonlinear regression using Prism software (GraphPad Software Inc., San Diego, CA) to determine IC50 values. […]

NET = NET (Rattus norvegicus, UniProt Q63380); type: biochemical; details: Frontal cortex synaptosome, read-out: IC50 values, uptake of [3H]-NE (NET)
Method: as §3, §4

D1 = target: T5, D1 (Homo sapiens, UniProt P21728); assay: CNS receptor binding, dopamine D1; details: HEK293 cell line, [3H]-SCH23390(1)
T5 construct: expressed in transfected cells; host or cells: HEK293 cell line
Method: (§5) Albiflorin (10 μM) was tested for numerous other potential binding targets by using standard receptor binding procedures. The tested targets included the following receptors: D1, D2, D3, D4, D5, 5-HT1A, 5-HT1B, 5-HT1D, 5-HT2a, 5-HT2C, 5-HT3, 5-HT5A, 5-HT6, 5-HT7, α1A, α1B, α2A, β1, M1, M2, M3, M4, M5, μ, κ, δ, A1, A2A, H1, H2, H3, H4.

D2 = target: T6, D2 (Homo sapiens, UniProt P14416); assay: CNS receptor binding, dopamine D2; details: HEK293 cell line, [3H]-spiperone(1)
T6 construct: expressed in transfected cells; host or cells: HEK293 cell line
Method: as §5

D4 = target: T7, D4 (Homo sapiens, UniProt P21917); assay: CNS receptor binding, dopamine D4; details: HEK293 cell line, [3H]-spiperone(1)
T7 construct: expressed in transfected cells; host or cells: HEK293 cell line
Method: as §5

D5 = D5 (Homo sapiens, UniProt P21918); assay: CNS receptor binding, dopamine D5; details: HEK293 cell line, [3H]-SCH23390(1)
Method: as §5

5-HT1D = 5-HT1D (Homo sapiens, UniProt P28221); assay: CNS receptor binding, 5-HT1D; details: HEK293 cell line, [3H]-LSD(10)
Method: as §5

5-HT2a = 5-HT2a (Homo sapiens, UniProt P28223); assay: CNS receptor binding, 5-HT2a; details: HEK293 cell line, [3H]-ketanserin(1)
Method: as §5

5-HT2C = 5-HT2C (Homo sapiens, UniProt P28335); assay: CNS receptor binding, 5-HT2C; details: CHO cell lines, [3H]-mesulergine(1)
Method: as §5

α1A = α1A (Rattus norvegicus, UniProt P43140); assay: CNS receptor binding, NE receptor α1A; details: Rat Frontal cortex, [3H]-parzosin(1)
Method: as §5

M1 = M1 (Homo sapiens, UniProt P11229); assay: CNS receptor binding, muscarinic M1; details: CHO cell line, [3H]-NMS(1)
Method: as §5

M2 = M2 (Homo sapiens, UniProt P08172); assay: CNS receptor binding, muscarinic M2; details: HEK293 cell line, [3H]-NMS(1)
Method: as §5

M5 = M5 (Homo sapiens, UniProt P08912); assay: CNS receptor binding, muscarinic M5; details: CHO cell line, [3H]-NMS(1)
Method: as §5

κ = κ (Homo sapiens, UniProt P41145); assay: CNS receptor binding, opioid κ; details: CHO cell line, [3H]-dipnorphine(1)
Method: as §5

δ = δ (Homo sapiens, UniProt P41143); assay: CNS receptor binding, opioid δ; details: CHO cell line, [3H]-dipnorphine(1)
Method: as §5

A1 = A1 (Homo sapiens, UniProt P30542); assay: CNS receptor binding, adenosine A1; details: CHO cell line, [3H]-DPCPX(1)
Method: as §5

sucrose consumption = tested on: sucrose consumption; design: method as in PMID 26719283; details: rats; chronic unpredicted mild stress; cited from earlier work
[1] = read-out: IC50 values for albiflorin

T2 sequence (Q63380 1-617): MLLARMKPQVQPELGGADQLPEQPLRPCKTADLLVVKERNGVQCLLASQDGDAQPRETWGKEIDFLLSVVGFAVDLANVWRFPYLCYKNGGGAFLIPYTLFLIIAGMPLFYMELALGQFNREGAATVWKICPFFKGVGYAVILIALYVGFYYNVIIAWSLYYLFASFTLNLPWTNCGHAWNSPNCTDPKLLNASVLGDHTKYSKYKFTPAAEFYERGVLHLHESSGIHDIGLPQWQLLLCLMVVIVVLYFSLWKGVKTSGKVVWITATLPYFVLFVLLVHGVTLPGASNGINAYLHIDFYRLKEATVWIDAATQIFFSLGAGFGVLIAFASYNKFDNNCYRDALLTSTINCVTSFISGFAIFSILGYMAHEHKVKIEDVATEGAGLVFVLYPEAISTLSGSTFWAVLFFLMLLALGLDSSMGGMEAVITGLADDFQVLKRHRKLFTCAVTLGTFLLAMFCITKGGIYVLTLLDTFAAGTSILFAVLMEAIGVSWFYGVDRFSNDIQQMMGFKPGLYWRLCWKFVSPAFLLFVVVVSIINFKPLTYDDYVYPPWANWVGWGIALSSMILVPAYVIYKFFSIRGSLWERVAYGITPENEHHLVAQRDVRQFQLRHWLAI
Chain of 5-HT1D (P28221 whole entry): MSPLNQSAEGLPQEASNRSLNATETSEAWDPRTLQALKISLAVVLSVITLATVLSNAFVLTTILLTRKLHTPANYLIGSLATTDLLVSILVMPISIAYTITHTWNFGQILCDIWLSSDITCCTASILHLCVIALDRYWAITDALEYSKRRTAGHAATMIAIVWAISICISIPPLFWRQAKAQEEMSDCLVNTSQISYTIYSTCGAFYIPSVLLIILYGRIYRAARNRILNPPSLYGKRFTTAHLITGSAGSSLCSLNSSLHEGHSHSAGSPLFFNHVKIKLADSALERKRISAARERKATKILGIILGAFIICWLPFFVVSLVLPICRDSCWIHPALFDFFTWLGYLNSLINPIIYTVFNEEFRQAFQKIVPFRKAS
Chain of M5 (P08912 whole entry): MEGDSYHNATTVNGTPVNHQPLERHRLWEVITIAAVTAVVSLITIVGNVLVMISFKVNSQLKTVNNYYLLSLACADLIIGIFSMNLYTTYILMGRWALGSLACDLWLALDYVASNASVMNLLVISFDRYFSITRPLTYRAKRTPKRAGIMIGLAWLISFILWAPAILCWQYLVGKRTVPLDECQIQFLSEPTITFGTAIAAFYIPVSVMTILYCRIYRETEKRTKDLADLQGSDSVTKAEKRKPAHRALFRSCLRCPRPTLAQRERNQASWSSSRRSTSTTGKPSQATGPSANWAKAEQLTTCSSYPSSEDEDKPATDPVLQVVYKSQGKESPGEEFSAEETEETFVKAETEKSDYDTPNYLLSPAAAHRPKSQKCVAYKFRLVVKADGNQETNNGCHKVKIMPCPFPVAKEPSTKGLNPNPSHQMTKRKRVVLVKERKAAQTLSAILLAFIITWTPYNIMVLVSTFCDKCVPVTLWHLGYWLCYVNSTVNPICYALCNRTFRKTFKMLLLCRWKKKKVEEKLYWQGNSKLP
T5 sequence (P21728 whole entry): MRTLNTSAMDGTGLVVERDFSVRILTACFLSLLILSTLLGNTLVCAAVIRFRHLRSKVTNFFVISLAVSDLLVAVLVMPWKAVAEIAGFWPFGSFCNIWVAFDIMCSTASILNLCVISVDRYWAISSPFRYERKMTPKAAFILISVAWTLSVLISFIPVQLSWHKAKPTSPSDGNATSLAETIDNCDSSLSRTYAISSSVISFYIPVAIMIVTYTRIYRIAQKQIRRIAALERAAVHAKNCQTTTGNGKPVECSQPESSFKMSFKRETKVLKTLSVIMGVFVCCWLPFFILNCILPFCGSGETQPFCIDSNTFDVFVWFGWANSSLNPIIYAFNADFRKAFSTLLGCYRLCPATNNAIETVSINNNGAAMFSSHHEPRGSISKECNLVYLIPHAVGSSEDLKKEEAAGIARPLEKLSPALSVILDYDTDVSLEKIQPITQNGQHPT
Chain of α1A (P43140 whole entry): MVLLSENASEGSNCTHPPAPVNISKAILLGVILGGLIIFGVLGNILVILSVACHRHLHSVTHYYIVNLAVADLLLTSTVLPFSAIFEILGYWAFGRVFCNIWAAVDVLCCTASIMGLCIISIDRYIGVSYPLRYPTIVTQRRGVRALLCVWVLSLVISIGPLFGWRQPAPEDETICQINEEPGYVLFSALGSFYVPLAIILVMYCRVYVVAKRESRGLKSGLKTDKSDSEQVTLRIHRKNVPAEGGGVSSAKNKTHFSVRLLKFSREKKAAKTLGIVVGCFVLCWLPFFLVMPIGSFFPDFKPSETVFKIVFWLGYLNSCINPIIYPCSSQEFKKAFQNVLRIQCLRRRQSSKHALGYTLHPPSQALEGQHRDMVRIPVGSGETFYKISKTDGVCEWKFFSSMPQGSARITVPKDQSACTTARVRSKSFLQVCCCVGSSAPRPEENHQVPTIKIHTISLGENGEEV
Chain of 5-HT2C (P28335 33-458): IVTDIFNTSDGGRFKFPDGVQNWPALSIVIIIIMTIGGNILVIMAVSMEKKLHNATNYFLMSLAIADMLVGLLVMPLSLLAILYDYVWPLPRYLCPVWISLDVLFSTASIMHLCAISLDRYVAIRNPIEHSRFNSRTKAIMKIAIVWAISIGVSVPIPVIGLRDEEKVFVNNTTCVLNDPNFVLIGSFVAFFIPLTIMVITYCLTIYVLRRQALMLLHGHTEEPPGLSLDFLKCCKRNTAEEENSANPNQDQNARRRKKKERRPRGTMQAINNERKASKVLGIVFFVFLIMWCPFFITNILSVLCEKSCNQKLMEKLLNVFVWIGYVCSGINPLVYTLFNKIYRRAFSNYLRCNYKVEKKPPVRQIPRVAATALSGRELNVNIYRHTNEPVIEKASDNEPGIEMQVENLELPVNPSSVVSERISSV
Chain of M2 (P08172 whole entry): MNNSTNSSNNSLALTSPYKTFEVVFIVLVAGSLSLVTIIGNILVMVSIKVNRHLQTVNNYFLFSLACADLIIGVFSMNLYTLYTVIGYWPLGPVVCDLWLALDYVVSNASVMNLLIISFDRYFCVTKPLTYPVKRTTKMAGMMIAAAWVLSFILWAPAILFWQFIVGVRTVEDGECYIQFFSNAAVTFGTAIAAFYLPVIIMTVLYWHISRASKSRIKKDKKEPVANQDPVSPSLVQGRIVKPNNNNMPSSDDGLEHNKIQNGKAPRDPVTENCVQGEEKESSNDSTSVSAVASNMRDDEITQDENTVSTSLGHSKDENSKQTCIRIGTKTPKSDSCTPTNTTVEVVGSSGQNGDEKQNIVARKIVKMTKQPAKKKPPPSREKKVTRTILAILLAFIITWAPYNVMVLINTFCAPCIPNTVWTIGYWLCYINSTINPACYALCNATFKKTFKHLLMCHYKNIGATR
Chain of κ (P41145 whole entry): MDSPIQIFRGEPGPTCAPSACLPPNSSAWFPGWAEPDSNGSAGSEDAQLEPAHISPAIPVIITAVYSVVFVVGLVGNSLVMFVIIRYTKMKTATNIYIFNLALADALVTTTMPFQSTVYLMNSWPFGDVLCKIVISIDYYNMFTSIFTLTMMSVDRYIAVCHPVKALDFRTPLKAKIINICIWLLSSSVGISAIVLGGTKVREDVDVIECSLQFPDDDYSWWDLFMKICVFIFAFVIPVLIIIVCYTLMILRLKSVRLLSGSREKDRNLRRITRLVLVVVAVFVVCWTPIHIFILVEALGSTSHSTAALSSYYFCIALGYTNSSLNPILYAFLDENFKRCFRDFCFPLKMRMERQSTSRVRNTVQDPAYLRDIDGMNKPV
Chain of D5 (P21918 whole entry): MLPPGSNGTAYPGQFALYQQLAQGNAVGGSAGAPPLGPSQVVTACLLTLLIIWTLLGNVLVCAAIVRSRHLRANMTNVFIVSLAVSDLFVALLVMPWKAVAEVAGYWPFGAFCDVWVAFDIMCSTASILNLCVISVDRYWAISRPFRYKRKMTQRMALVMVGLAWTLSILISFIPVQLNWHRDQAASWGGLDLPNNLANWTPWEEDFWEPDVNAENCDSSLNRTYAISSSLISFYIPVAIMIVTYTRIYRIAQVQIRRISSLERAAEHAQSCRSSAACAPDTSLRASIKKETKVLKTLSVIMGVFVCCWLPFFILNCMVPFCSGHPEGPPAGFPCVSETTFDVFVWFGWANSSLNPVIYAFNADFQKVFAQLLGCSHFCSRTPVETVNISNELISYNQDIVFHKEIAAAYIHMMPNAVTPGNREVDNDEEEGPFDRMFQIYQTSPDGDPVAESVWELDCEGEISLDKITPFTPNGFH
Chain of δ (P41143 whole entry): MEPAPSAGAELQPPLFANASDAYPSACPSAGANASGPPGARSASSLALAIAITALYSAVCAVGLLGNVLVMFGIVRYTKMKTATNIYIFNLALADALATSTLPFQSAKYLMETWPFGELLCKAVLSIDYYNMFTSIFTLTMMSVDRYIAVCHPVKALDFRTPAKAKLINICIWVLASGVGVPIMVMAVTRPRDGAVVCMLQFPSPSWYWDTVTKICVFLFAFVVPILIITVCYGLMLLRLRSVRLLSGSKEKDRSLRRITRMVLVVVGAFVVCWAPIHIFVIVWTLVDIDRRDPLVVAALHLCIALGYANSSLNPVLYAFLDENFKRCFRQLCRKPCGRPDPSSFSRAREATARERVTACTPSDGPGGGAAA
Chain of A1 (P30542 whole entry): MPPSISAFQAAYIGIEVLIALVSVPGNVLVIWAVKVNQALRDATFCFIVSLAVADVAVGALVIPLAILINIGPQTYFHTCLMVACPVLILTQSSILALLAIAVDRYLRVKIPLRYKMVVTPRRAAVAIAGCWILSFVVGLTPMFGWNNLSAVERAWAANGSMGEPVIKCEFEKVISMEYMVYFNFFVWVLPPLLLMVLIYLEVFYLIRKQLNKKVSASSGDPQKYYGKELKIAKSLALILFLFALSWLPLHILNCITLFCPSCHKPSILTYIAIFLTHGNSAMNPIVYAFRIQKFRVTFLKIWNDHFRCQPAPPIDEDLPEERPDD
Chain of NET (Q63380 1-617): as the sequence (Q63380 1-617) above

C[C@]12C[C@@H](O)[C@@H]3C[C@@]1(O[C@@H]1O[C@H](CO)[C@@H](O)[C@H](O)[C@H]1O)[C@@]3(COC(=O)c1ccccc1)C(=O)O2 [albiflorin, Albiflorin]
Ki (rat SERT): 0.00525 ± 0.00017 µM | Ki (rat NET; Rat, [3H]-nisoxetine, Hypothalamus): 0.00125 ± 0.00077 µM | potency/affinity relative to desipramine at the rat NET (rat NET; albiflorin vs desipramine): 4 fold and 6 fold | Ki (rat DAT): 3.656 ± 0.0254 µM | IC50 (DAT): 3.69 ± 0.114 µM | IC50 (NET): 0.00098 ± 0.00024 µM | % Inhibition of binding at 10 μM albiflorin (D1): 54.20% | IC50 (D1; [1]): 2.99 ± 0.166 µM | % Inhibition of binding at 10 μM albiflorin (D2): 12.50% | IC50 (D2; [1]): > 10 µM | % Inhibition of binding at 10 μM albiflorin (D4): 19.50% | IC50 (D4; [1]): > 10 µM | % Inhibition of binding at 10 μM albiflorin (D5): 32.50% | IC50 (D5; [1]): > 10 µM | % Inhibition of binding at 10 μM albiflorin (5-HT1D): 22.36% | IC50 (5-HT1D; [1]): > 10 µM | % Inhibition of binding at 10 μM albiflorin (5-HT2a): 55.36% | IC50 (5-HT2a; [1]): 4 ± 0.113 µM | % Inhibition of binding at 10 μM albiflorin (5-HT2C): 33.66% | IC50 (5-HT2C; [1]): > 10 µM | % Inhibition of binding at 10 μM albiflorin (α1A): 56.33% | IC50 (α1A; [1]): 4.71 ± 0.113 µM | % Inhibition of binding at 10 μM albiflorin (M1): 21.28% | IC50 (M1; [1]): > 10 µM | % Inhibition of binding at 10 μM albiflorin (M2): 13.33% | IC50 (M2; [1]): > 10 µM | % Inhibition of binding at 10 μM albiflorin (M5): 20.11% | IC50 (M5; [1]): > 10 µM | % Inhibition of binding at 10 μM albiflorin (κ): 32.33% | IC50 (κ; [1]): > 10 µM | % Inhibition of binding at 10 μM albiflorin (δ): 66.33% | IC50 (δ; [1]): 3.66 ± 0.201 µM | % Inhibition of binding at 10 μM albiflorin (A1): 21.23% | IC50 (A1; [1]): > 10 µM | antidepressant-like effect, sucrose consumption (sucrose consumption): reversal of chronic unpredicted mild stress-induced inhibition of sucrose consumption
